In patent US20110263693A1, “CELASTROL, GEDUNIN, AND DERIVATIVES THEREOF AS HSP90 INHIBITORS” (DANA-FARBER CANCER INSTITUTE, INC., priority 2006, published 2011):

Key:
[1] = system: celastrol and gedunin signatures; assay: Connectivity Map query with the celastrol and gedunin signatures (joint); format: cell-based, human; conditions: Connectivity Map profiles, 6 hr
Excerpt: Indeed, a major challenge in cell-based chemical biology and chemical genomics is the identification of compounds' targets (Gardner et al., 2003). We hypothesized that gene expression signatures could be used to identify compound action based on the similarity of such compound-induced signatures to signatures of existing drugs of known mechanism. We therefore employed a collection of gene expression profiles of drug-treated cell lines that was developed in our lab, termed the Connectivity Map (Lamb et al., 2006). This database comprises 453 genome-wide Affymetrix expression profiles derived from the treatment of human cell lines with 164 small molecules, primarily FDA-approved drugs. A 6 hr treatment time was chosen in an attempt to capture the primary, and potentially mechanistic, effects of the compounds rather than the downstream phenotypic consequences.
In order to use the Connectivity Map to gain insight into celastrol and gedunin function, we first defined a gene expression signature of celastrol and gedunin activity. The expression signatures of celastrol and gedunin were derived by expression profiling of RNA from LNCaP cells treated with celastrol (1.25 μM), gedunin (20 μM), and vehicle (DMSO) for 6 hr; signatures were defined using comparative marker selection to identify transcripts that distinguished between the compound- and vehicle-treated profiles by the signal-to-noise (SNR) metric. The enrichment of these signatures in the gene expression profiles of the Connectivity Map database was then assessed using a gene enrichment metric, the connectivity score, based on the Kolmogorov-Smirnov statistic (Lamb et al., 2003).
The celastrol and gedunin signatures were developed from RMA-processed microarray data from LNCaP cells treated with 1.25 μM celastrol or 20 μM gedunin for 6 hours. Comparative marker selection was used to identify markers that distinguished celastrol- and/or gedunin-treated samples from vehicle-treated samples by the median SNR (Golub et al., 1999). […]

[2] = system: gedunin signature; assay: Connectivity Map query with the gedunin signature; format: cell-based, human; design: key to gedunin score (connectivity score): connectivity score, based on Kolmogorov-Smirnov statistic; conditions: for gedunin score (connectivity score): enrichment of the gedunin signature (20 μM gedunin at 6 hours, LNCaP) in the compound's Connectivity Map profiles, 6 hr treatment; for connectivity scores for the gedunin signature: multiple instances, gedunin signature from LNCaP, 6 hours; for gedunin rank: rank by gedunin score among 164 Connectivity Map compounds
How it was run: (§1)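 LNCaP cells received celastrol 1.25 μM or gedunin 20 μM for 6 h. Each signature was scored by Kolmogorov–Smirnov-based connectivity against 453 build01 profiles, mostly 6 h treatments of MCF7 cells.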

[3] = system: celastrol signature; assay: Connectivity Map query with the celastrol signature; format: cell-based, human; design: key to celastrol score (connectivity score): connectivity score, based on Kolmogorov-Smirnov statistic; conditions: for celastrol score (connectivity score): enrichment of the celastrol signature (1.25 μM celastrol at 6 h, LNCaP) in the compound's Connectivity Map profiles, 6 hr treatment; for celastrol rank: rank by celastrol score among 164 Connectivity Map compounds
How it was run: as §1

[4] = system: androgen signaling signature in LNCaP cells; assay: GE-HTS androgen signaling signature assay / screen; conditions: LNCaP, with and without 12 hours androgen pretreatment
[5] = target: HSP90α (Homo sapiens, UniProt P07900); assay: Geldanamycin competition assay (Cy3B-geldanamycin fluorescence polarization); format: binding; design: purchased Stressgen SPP776 / SPP-776; conditions: celastrol and gedunin at concentrations up to ~100 μM
Method: We first tested whether celastrol or gedunin could compete with Cy3B-geldanamycin for binding to the ATP-binding pocket of purified HSP90α by fluorescence polarization assay (Kim et al., 2004, Llauger-Bufi et al., 2003).
The geldanamycin competition assay was performed as described (He et al., 2006, Kim et al., 2004), except that Cy3B-geldanamycin rather than BODIPY-geldanamycin was used as described herein.
Measurements were taken in black 96-well microtiter plates (Coming #3650). The assay buffer (HFB) contained 20 mM HEPES (K) pH 7.3, 50 mM KCl, 5 mM MgCl2, 20 mM Na2MoO4, 0.01% NP40. Before each use, 0.1 mg/mL bovine gamma globulin (BGG) (Panvera Corporation, Madison, Wis.) and 2 mM DTT (Fisher Biotech, Fair Lawn, N.J.) were freshly added. GM-cy3B was synthesized as previously reported and was dissolved in DMSO to form 10 μM solutions. Cell lysates were prepared rupturing cellular membranes by freezing at −70° C. and dissolving the cellular extract in HFB with added protease and phosphotase inhibitors. Saturation curves were recorded in which GM-cy3B (3 nM) was treated with increasing amounts of cellular lysates.

[6] = system: HSP90 interaction with the cochaperone p23; assay: HSP90 coimmunoprecipitation, p23; format: cell-based; conditions: SKBR-3 cells; celastrol 2.5 μM, 12 hr
Method: Geldanamycin and other HSP90 inhibitors are known to inhibit p23 association with HSP90 (Felts et al., 2003).
SKBR-3 cells were treated with vehicle, celastrol (2.5 μM, 12 hr), and PU24FCI (20 μM, 24 hr) (Vilenchik et al., 2004). Cells were lysed in 20 mM Tris HCl (pH 7.4), 25 mM NaCl, 2 mM DDT, 20 mM Na2MoO4, 0.1% NP-40, and […]. Lysates were incubated for 2 hr at 4° C., rotating, and then centrifuged at 13,000×g for 10 min. Protein (500 μg) was incubated with H9010 anti-HSP90 antibody for 1 hr at 4° C., rotating. Protein G agarose (30 μl; Upstate) was added to each sample, and samples were then incubated for 1 hr at 4° C., rotating. The beads were washed five times with 1 ml lysis buffer. Bound proteins were isolated by boiling in sample buffer. The levels of HSP90 and coimmunoprecipitating proteins were analyzed by western blot.

[7] = in vitro; conditions: human

C=CCNC1=C2C[C@@H](C)C[C@H](OC)[C@H](O)[C@@H](C)/C=C(\C)[C@H](OC(N)=O)[C@@H](OC)/C=C\C=C(/C)C(=O)NC(=CC1=O)C2=O [17-AAG, 17-allylamino-geldanamycin, reference compound]
similarity of gene expression profile to the celastrol and gedunin signatures [1]: very strong similarity
gedunin score (connectivity score) [2]: 0.702
connectivity scores for the gedunin signature [2]: High connectivity scores
gedunin rank [2]: 6
celastrol score (connectivity score) [3]: 0.736
celastrol rank [3]: 8
effect on the GE-HTS androgen signaling signature outside the screen [4]: suppressed the androgen signaling signature

CO[C@H]1/C=C\C=C(/C)C(=O)NC2=CC(=O)C(NCCN(C)C)=C(C[C@@H](C)C[C@H](OC)[C@H](O)[C@@H](C)/C=C(\C)[C@@H]1OC(N)=O)C2=O [17-DMAG, 17-dimethylaminoethylamino-17-demethoxy-geldanamycin, reference compound]
similarity of gene expression profile to the celastrol and gedunin signatures [1]: very strong similarity
gedunin score (connectivity score) [2]: 0.73
connectivity scores for the gedunin signature [2]: High connectivity scores
gedunin rank [2]: 5
celastrol score (connectivity score) [3]: 0.766
celastrol rank [3]: 6

CC(C)NCCCn1c(Sc2cc3c(cc2I)OCO3)nc2c(N)ncnc21 [PU-H71, reference compound]
competition with Cy3B-geldanamycin for binding to the ATP-binding pocket of HSP90α [5]: competed with geldanamycin binding at low concentrations
HSP90 interaction with cochaperone p23 (coimmunoprecipitation) [6]: had the same effect

C[C@@H]1C[C@H]2O[C@@H]2/C=C\C=C\C(=O)Cc2c(Cl)c(O)cc(O)c2C(=O)O1 [monorden, reference compound]
similarity of gene expression profile to the celastrol and gedunin signatures [1]: very strong similarity
gedunin score (connectivity score) [2]: 0.511
celastrol score (connectivity score) [3]: 0.409

CO[C@H]1C[C@H](O[C@@H]2/C(C)=C/C[C@@H]3C[C@@H](C[C@]4(CC[C@H](C)[C@@H](C5CCCCC5)O4)O3)OC(=O)[C@@H]3C=C(C)/C(=N/O)[C@H]4OC/C(=C\C=C\[C@@H]2C)[C@]43O)O[C@@H](C)[C@@H]1O [selamectin]
viability [7]: 81.1%
